Laboratory results published in patent US20100227828A1, “NEW SYNERGISTIC PHYTOCHEMICAL COMPOSITION FOR THE TREATMENT OF OBESITY” (LAILA NUTRACEUTICALS, priority 2007, published 2010).

Tests used:
[1] = tested on: 5-lipoxygenase; test: 5-Lipoxygenase inhibitory activity, colorimetric method; type: biochemical
Experimental: The new dietary/pharmaceutical supplement compositions are screened for their 5-lipoxygenase inhibitory potential using colorimetric method. The assay mixture contained 50 mM phosphate buffer (pH 6.3), 5-lipoxygenase, various concentrations of test composition (5 μg, 10 μg, 20 μg) in dimethylsulphoxide and linolenic acid in a total volume of 0.5 mL, after 5 min incubation of above reaction mixture 0.5 mL ferric xylenol orange reagent is added and OD is measured after two minutes at 585 nm using spectrophotometer. Controls are run along with test in a similar manner except using vehicle instead of test substance solution. Percent inhibition is calculated by comparing absorbance of the test solution with that of control.

[2] = Protective effect against diet induced obesity in rats; type: in vivo, Sprague-Dawley rats; settings: 7 mg/kg oral per day, 8 weeks with high fat diet
Experimental: Selected healthy Sprague-Dawley rats were randomly assigned to control or various treatment groups (n=6). All the animals allocated for protective phase of the study were on dietary intervention by feeding high fat diet ad libitum and the animals allocated to treatment groups were simultaneously given oral administration of 250 mg/kg of composition-1 or 7 mg/kg sibutramine per day in […] of 0.5% CMC, using gastric tube for the entire 8 week study duration. The test animals of the control group were simultaneously given 10 ml/kg of 0.5% CMC. Food and water consumption were recorded daily, body weights were recorded weekly and fasting blood samples were collected before initiation, after 4th week and 8th week (termination) of the study.

| Structure (SMILES) | % of inhibition (5-Lipoxygenase) ([1]; 5 μg) | % of inhibition (5-Lipoxygenase) ([1]; 10 μg) | reduction in weight gain [2] |
| --- | --- | --- | --- |
| C[C@H](Cc1ccc(O)c(O)c1)[C@@H](C)Cc1ccc(O)c(O)c1 [NDGA, Nordihydroguiaretic acid] | 50.2% | 77.35% | – |
| CC(C)CC(N(C)C)C1(c2ccc(Cl)cc2)CCC1 (stereo not drawn) [sibutramine] | – | – | 28.2% |
